In patent US20230203041A1, “ANTAGONISTS OF THE ADENOSINE A2A RECEPTOR” (AdoRx Therapeutics Limited, priority 2020, published 2023):
Where a name gives a salt, the structure may show the parent alone.

Experiments:
[1] = biological target: T1, human Adenosine A2a receptor (Homo sapiens, UniProt P29274); experiment: Adenosine receptor TR-FRET binding assay (CA200645 displacement), A2a; details: 100 nM CA200645, CHO cell membranes, 2 hours at room temperature
T1 construct: expressed in transfected cells; host or cells: CHO cell membranes
Description: All FRET binding experiments were conducted at room temperature in white 384-well plates, in assay binding buffer containing 1×LabMed (Cisbio, France), 100 μg/mL saponin, 1% DMSO and 0.02% pluronic acid. Binding of the fluorescently labelled Adenosine receptor antagonist XAC (CA200645, FRET acceptor) to terbium-labelled A1, A2a, A2b and A3 adenosine receptors (FRET donors) was detected by time-resolved FRET due to the close proximity of the donor and acceptor in a binding event. To investigate the ability of unlabelled test compounds to bind to Adenosine A1, A2a, A2b and A3 receptors, dose response curves were constructed that determined the ability of a range of concentrations to inhibit the binding of 30 nM CA200645 to the A2b receptor and 100 nM CA200645 to the A1, A2a, and A3 receptor.
Serial dilution (1:3 dilutions) of test compounds in neat DMSO and transfer of a 400 nL sample of test compound into the assay plate was carried out using the Mosquito (TTP Labtech, UK). The compound samples were incubated for 2 hours at room temperature with a fixed concentration of CA200645 defined for each receptor (see above) and CHO cell membranes containing the human Adenosine A1 (0.5 μg/well), A2a (0.3 μg/well), A2b (1 μg/well) or A3 (1 μg/well) receptor in 40 μL of assay buffer. Total and non-specific binding of CA200645 was determined in the absence and presence of 10 μM XAC, respectively. Following 2 hours incubation, the level of CA200645 binding was detected on a Pherastar FSX (BMG Labtech, Germany) using standard TR-FRET settings. The terbium donor was excited with three laser flashes at a wavelength of 337 nm, and donor and acceptor emission was detected at 620 nm and 665 nm wavelengths, respectively. FRET ratios were obtained by multiplying the acceptor/donor ratio value by 10,000. Specific binding was determined by subtracting the non-specific binding FRET ratio from the total binding FRET ratio. Compound IC50 curves were analysed using GraphPad Prism 7.0 (GraphPad, USA) and Ki affinity values were determined from the obtained IC50 values using the method of Cheng and Prusoff.

[2] = biological target: T2, human Adenosine A2b receptor (Homo sapiens, UniProt P29275); experiment: Adenosine receptor TR-FRET binding assay (CA200645 displacement), A2b; details: 30 nM CA200645, CHO cell membranes, 2 hours at room temperature
T2 construct: expressed in transfected cells; host or cells: CHO cell membranes
T2 sequence (P29275 1-332): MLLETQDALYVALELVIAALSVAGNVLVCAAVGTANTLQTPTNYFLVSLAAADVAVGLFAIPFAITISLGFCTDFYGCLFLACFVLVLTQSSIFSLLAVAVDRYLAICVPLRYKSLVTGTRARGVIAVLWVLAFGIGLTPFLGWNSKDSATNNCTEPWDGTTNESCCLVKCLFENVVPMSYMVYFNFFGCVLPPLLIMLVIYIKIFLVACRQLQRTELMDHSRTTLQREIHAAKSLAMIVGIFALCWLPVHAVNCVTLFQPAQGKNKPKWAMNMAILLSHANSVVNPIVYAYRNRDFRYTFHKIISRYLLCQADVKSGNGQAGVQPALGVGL

[3] = biological target: T3, human Adenosine A1 receptor (Homo sapiens, UniProt P30542); experiment: Adenosine receptor TR-FRET binding assay (CA200645 displacement), A1
T3 sequence (P30542 1-326): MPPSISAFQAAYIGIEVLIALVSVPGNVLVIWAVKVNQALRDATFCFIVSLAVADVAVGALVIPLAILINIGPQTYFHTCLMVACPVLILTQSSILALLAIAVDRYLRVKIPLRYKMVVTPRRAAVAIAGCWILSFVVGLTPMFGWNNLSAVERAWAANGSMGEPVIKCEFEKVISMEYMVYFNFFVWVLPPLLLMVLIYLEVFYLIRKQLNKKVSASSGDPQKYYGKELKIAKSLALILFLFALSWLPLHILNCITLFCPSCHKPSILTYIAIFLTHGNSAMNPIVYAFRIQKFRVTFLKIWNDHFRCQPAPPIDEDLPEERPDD

[4] = biological target: T4, human Adenosine A3 receptor (Homo sapiens, UniProt P0DMS8); experiment: Adenosine receptor TR-FRET binding assay (CA200645 displacement), A3
T4 sequence (P0DMS8 1-318): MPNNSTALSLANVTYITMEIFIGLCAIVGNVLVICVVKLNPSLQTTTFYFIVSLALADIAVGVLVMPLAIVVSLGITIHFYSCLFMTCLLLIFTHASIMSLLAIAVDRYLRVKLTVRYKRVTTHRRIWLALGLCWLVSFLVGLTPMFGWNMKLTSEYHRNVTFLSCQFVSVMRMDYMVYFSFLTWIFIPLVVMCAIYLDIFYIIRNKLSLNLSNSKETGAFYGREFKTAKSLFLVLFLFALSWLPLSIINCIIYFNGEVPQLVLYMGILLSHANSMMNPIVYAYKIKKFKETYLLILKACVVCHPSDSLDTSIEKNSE

T1 sequence (P29274 whole entry): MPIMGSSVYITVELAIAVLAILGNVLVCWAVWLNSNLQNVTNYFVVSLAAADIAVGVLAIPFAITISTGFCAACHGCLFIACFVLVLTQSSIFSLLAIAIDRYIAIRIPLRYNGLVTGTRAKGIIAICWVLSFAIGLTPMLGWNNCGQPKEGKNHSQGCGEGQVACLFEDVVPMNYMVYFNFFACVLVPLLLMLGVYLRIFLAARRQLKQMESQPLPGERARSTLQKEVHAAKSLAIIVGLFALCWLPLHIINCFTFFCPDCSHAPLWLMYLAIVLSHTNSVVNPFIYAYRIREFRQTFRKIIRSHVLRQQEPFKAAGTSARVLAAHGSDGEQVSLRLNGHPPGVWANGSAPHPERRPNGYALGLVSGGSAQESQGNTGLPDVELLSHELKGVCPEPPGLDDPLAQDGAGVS

| SMILES | Ki [1] | Ki [2] | Ki [3] | Ki [4] |
| --- | --- | --- | --- | --- |
| Cc1cc(-c2c(-c3cccc(C#N)c3)nn3ccc(C(=O)NCCN4CCN(c5ccccc5)CC4)nc23)cc(Cl)n1 [Example 5.4] | 0.0013 µM | 0.019 µM | 0.107 µM | > 1 µM |
| Cc1cc(-c2c(-c3cccc(C#N)c3)nn3ccc(C(=O)N4CCOCC4)nc23)cc(Cl)n1 [Example 5.7] | 0.0148 µM | 0.01 µM | 0.135 µM | > 1 µM |
| Cc1cc(-c2c(-c3cccc(C#N)c3)nn3ccc(C(N)=O)nc23)cc(C)n1 [Example 5.8, 2-(3-Cyanophenyl)-3-(2,6-dimethyl-4-pyridyl)pyrazolo[1,5-a]pyrimidine-5-carboxamide] | 0.0057 µM | 0.041 µM | 0.418 µM | > 1 µM |
| Cc1cc(-c2c(-c3cccc(C#N)c3)nn3ccc(C(=O)NCC(C)(C)N)nc23)cc(Cl)n1 [Example 6.1, N-(2-Amino-2-methyl-propyl)-3-(2-chloro-6-methyl-4-pyridyl)-2-(3-cyanophenyl)pyrazolo[1,5-a]pyrimidine-5-carboxamide] | 0.0117 µM | 0.053 µM | 0.664 µM | > 1 µM |
| Cc1cc(-c2c(-c3cccc(C#N)c3)nn3ccc(C(=O)NCC4(O)CCC4)nc23)cc(Cl)n1 [Example 6.3, 3-(2-Chloro-6-methyl-4-pyridyl)-2-(3-cyanophenyl)-N-[(1-hydroxycyclobutyl)methyl]pyrazolo[1,5-a]pyrimidine-5-carboxamide] | 0.0003 µM | 0.003 µM | 0.127 µM | > 1 µM |
| Cc1cc(-c2c(-c3cccc(C#N)c3)nn3ccc(C(=O)NC[C@@H](C)O)nc23)cc(Cl)n1 [Example 6.5, 3-(2-Chloro-6-methyl-4-pyridyl)-2-(3-cyanophenyl)-N-[(2R)-2-hydroxypropyl]pyrazolo[1,5-a]pyrimidine-5-carboxamide] | 0.0009 µM | 0.007 µM | 0.361 µM | > 1 µM |
| Cc1cc(-c2c(-c3cccc(C#N)c3)nn3ccc(C(=O)N[C@H](C)CO)nc23)cc(Cl)n1 [Example 6.6, 3-(2-Chloro-6-methyl-4-pyridyl)-2-(3-cyanophenyl)-N-[(1R)-2-hydroxy-1-methyl-ethyl]pyrazolo[1,5-a]pyrimidine-5-carboxamide] | 0.0009 µM | 0.035 µM | 0.39 µM | > 1 µM |
| Cc1cc(-c2c(-c3cccc(C#N)c3)nn3ccc(C(=O)NCC4(O)COC4)nc23)cc(Cl)n1 [Example 6.7, 3-(2-Chloro-6-methyl-4-pyridyl)-2-(3-cyanophenyl)-N-[(3-hydroxyoxetan-3-yl)methyl]pyrazolo[1,5-a]pyrimidine-5-carboxamide] | 0.0014 µM | 0.005 µM | 0.174 µM | > 1 µM |
| Cc1cc(-c2c(-c3cccc(C#N)c3)nn3ccc(C(=O)NS(C)(=O)=O)nc23)cc(Cl)n1 [Example 6.8, 3-(2-Chloro-6-methyl-4-pyridyl)-2-(3-cyanophenyl)-N-methylsulfonyl-pyrazolo[1,5-a]pyrimidine-5-carboxamide] | 0.0083 µM | 0.039 µM | 0.522 µM | 2.55 µM |
| Cc1cc(-c2c(-c3cccc(C#N)c3)nn3ccc(C(=O)NCC4CC(O)C4)nc23)cc(Cl)n1 (stereo not shown) [Example 6.10, 3-(2-Chloro-6-methyl-4-pyridyl)-2-(3-cyanophenyl)-N-[(3-hydroxycyclobutyl)methyl]pyrazolo[1,5-a]pyrimidine-5-carboxamide] | 0.0025 µM | 0.024 µM | 0.581 µM | > 1 µM |
| Cc1cc(-c2c(-c3cccc(C#N)c3)nn3ccc(C(=O)NC45CCC(N)(CC4)C5)nc23)cc(Cl)n1 [Example 6.12, N-(4-Aminonorbornan-1-yl)-3-(2-chloro-6-methyl-4-pyridyl)-2-(3-cyanophenyl)pyrazolo[1,5-a]pyrimidine-5-carboxamide] | 0.0037 µM | 0.006 µM | 0.105 µM | > 1 µM |
| Cc1cc(-c2c(-c3cccc(C#N)c3)nn3ccc(C(=O)NC4CN(C)C4)nc23)cc(Cl)n1 [Example 6.16, 3-(2-Chloro-6-methyl-4-pyridyl)-2-(3-cyanophenyl)-N-(1-methylazetidin-3-yl)pyrazolo[1,5-a]pyrimidine-5-carboxamide] | 0.0059 µM | 0.054 µM | 0.346 µM | > 1 µM |
| Cc1cc(-c2c(-c3cccc(C#N)c3)nn3ccc(C(=O)N[C@H]4COC[C@H]4O)nc23)cc(Cl)n1 [Example 6.17, 3-(2-Chloro-6-methyl-4-pyridyl)-2-(3-cyanophenyl)-N-[(3S,4S)-4-hydroxytetrahydrofuran-3-yl]pyrazolo[1,5-a]pyrimidine-5-carboxamide] | 0.0005 µM | 0.003 µM | 0.11 µM | > 1 µM |
| Cc1cc(-c2c(-c3cccc(C#N)c3)nn3ccc(C(=O)NC45CC(N)(C4)C5)nc23)cc(Cl)n1 [Example 7.1, N-(3-Amino-1-bicyclo[1.1.1]pentanyl)-3-(2-chloro-6-methyl-4-pyridyl)-2-(3-cyanophenyl)pyrazolo[1,5-a]pyrimidine-5-carboxamide] | 0.002 µM | 0.017 µM | 0.245 µM | > 1 µM |
| Cc1cc(-c2c(-c3cccc(C#N)c3)nn3ccc(C(=O)N[C@H]4CNC[C@@H]4O)nc23)cc(Cl)n1 [Example 7.5, 3-(2-Chloro-6-methyl-4-pyridyl)-2-(3-cyanophenyl)-N-[trans-(3S,4S)-4-hydroxypyrrolidin-3-yl]pyrazolo[1,5-a]pyrimidine-5-carboxamide] | 0.0055 µM | 0.005 µM | 0.612 µM | > 1 µM |
| Cc1cc(-c2c(-c3cccc(C#N)c3)nn3ccc(C(=O)NCC4(O)CCNC4)nc23)cc(Cl)n1 (stereo not shown) [Example 7.6, 3-(2-Chloro-6-methyl-4-pyridyl)-2-(3-cyanophenyl)-N-[(3-hydroxypyrrolidin-3-yl)methyl]pyrazolo[1,5-a]pyrimidine-5-carboxamide] | 0.0068 µM | 0.013 µM | 0.672 µM | > 1 µM |
| Cc1cc(-c2c(-c3cccc(C#N)c3)nn3ccc(C(=O)NC4(C)CCNC4)nc23)cc(Cl)n1 (stereo not shown) [Example 7.8, 3-(2-Chloro-6-methyl-4-pyridyl)-2-(3-cyanophenyl)-N-(3-methylpyrrolidin-3-yl)pyrazolo[1,5-a]pyrimidine-5-carboxamide] | 0.0024 µM | 0.01 µM | 0.16 µM | > 1 µM |
| Cc1cc(-c2c(-c3cccc(C#N)c3)nn3ccc(C(=O)NCC4(N)CC(F)(F)C4)nc23)cc(Cl)n1 [Example 7.10, N-[(1-Amino-3,3-difluoro-cyclobutyl)methyl]-3-(2-chloro-6-methyl-4-pyridyl)-2-(3-cyanophenyl)pyrazolo[1,5-a]pyrimidine-5-carboxamide] | 0.0043 µM | 0.019 µM | 0.181 µM | > 1 µM |
| Cc1cc(-c2c(-c3cccc(C#N)c3)nn3ccc(C(=O)NCC4CNCCO4)nc23)cc(Cl)n1 (stereo not shown) [Example 7.11, 3-(2-Chloro-6-methyl-4-pyridyl)-2-(3-cyanophenyl)-N-(morpholin-2-ylmethyl)pyrazolo[1,5-a]pyrimidine-5-carboxamide] | 0.0049 µM | 0.003 µM | 0.137 µM | > 1 µM |
| Cc1cc(-c2c(-c3cccc(C#N)c3)nn3ccc(C(=O)N4CCNCC4)nc23)cc(Cl)n1 [Example 7.12, 3-[3-(2-Chloro-6-methyl-4-pyridyl)-5-(piperazine-1-carbonyl)pyrazolo[1,5-a]pyrimidin-2-yl]benzonitrile hydrochloride] | 0.0443 µM | 0.02 µM | 0.459 µM | > 1 µM |
| Cc1cc(-c2c(-c3cccc(C#N)c3)nn3ccc(C(=O)N[C@@H]4CCNC4)nc23)cc(Cl)n1 [Example 7.13, 3-(2-Chloro-6-methyl-4-pyridyl)-2-(3-cyanophenyl)-N-[(3R)-pyrrolidin-3-yl]pyrazolo[1,5-a]pyrimidine-5-carboxamide hydrochloride] | 0.0063 µM | 0.028 µM | 0.16 µM | > 1 µM |
| Cc1cc(-c2c(-c3cccc(C#N)c3)nn3ccc(C(=O)NC4CCNCC4)nc23)cc(Cl)n1 [Example 7.15, 3-(2-Chloro-6-methyl-4-pyridyl)-2-(3-cyanophenyl)-N-(4-piperidyl)pyrazolo[1,5-a]pyrimidine-5-carboxamide] | 0.0221 µM | 0.025 µM | 0.703 µM | > 1 µM |
